Reference: patent US10617734B2, “STAT3 and ERK signal pathway inhibitor comprising mogrosides and analogs thereof” (BEIJING UNIVERSITY OF AGRICULTURE, priority 2014, dated 2020)

What was measured:
[1] = test system: histiocytic lymphoma U937 cells; test: Cell cycle distribution, PI staining, flow cytometer; type: cell-based; settings: 24 h; for proportion of cells in G0/G1 phase with the rise of the concentration: U937 cells, 0, 1, 10, 150 and 250 μmol/L; for cell cycle distribution (proportion of cells of G0/G1 phase): U937 cells, 10 μmol/L
Excerpt: (§1) The influences of Mogroside I E1, Mogroside II A2 and mogrol on the cell cycle distribution of the histiocytic lymphoma U937 cells, the human melanoma A875 cells and the leukemia cells K562.
(§2) The cell cycle arrest achieved by drugs is an important approach to the inhibition of cancer cell proliferation.

[2] = test system: human melanoma A875 cells; test: as above; type: cell-based; settings: human melanoma A875 cells, 10 μmol/L, 24 h
Excerpt: as §1, §2

leukemia cells K562 [3] = test: Cell morphology, Hoechst 33258 staining, fluorescence microscope; type: cell-based, human; settings: leukemia cells K562, 10, 100 and 250 μmol/L, 24-hour culture
Method: (§3) Lymphoma U937 cells, human melanoma A875 cells and leukemia cells K562 in logarithmic growth phase were selected, and the concentrations of the cells were adjusted to 1×10^4 cells/mL, and the cells were transferred to a 6-well plate for culture, and after the 24-hour culture, drugs were added to achieve final concentrations of 0, 10, 100 and 250 μmol/L, wherein only whole medium was added to the negative control groups, while Mogroside II A2 was added to the positive control groups, after 24-hour culture, waste solution was removed, and fixing solution was added to each well for fixing for 25 min, and then the resulting mixture was washed twice, 3 min each time, and then Hoechst 33258 staining solution was added for staining in dark at room temperature for 30 min, and the cell morphology variation was observed using a fluorescence microscope.

[4] = test system: anti-apoptotic protein Bcl-2; test: Western Blotting of Bcl-2 in K562 cells; type: cell-based, human; settings: leukemia cells K562, 10 μmol/L, 24 h
Method: (§4) The STAT3 and ERK signal pathways can regulate cyclins and apoptosis genes, and in order to verify the effects of […] and mogrol, the expression status of downstream genes of STAT3 and ERK was detected, wherein the influences of the three mogrosides and analogs thereof, i.e. Mogrol I E1, Mogrol II A2 and mogrol, on Bcl-2 and P21 proteins in the histiocytic lymphoma U937 cells, human melanoma A875 cells and leukemia cells K562 were determined, respectively.
(§5) The regulation of Bcl-2 and P21 proteins by mogrosides and analog thereof to the was detected by Western Blotting, specifically: histiocytic lymphoma U937 cells, human melanoma A875 cells and leukemia cells K562 (1×10^6 cells/well) were inoculated into a 6-well culture plate overnight, and 0 and 10 μmol/L of the mogrosides and analogs thereof were added respectively, and kept cultured for 24 h. […]
(§6) The protein concentration was measured with bovine serum albumin (BSA) as the standard. 50 μg of the total proteins were separated by polyacrylamide gel electrophoresis with 12% SDS, and electrophoretically transferred to a PVDF membrane (polyvinylidene fluoride membrane), and blocked for 1 h by 5% of skim milk (containing 0.1% of Tween 20), and then antibodies P21, Bcl-2 and β-actin were added, wherein the primary antibody was incubated at 4° C. overnight (β-actin was used as reference loading amount); the membrane was washed for 3 times with TBS-T, 5 min each time; secondary antibody marked by horseradish peroxidase (HRP) was added for incubation at room temperature for 1 h, the membrane was washed with rinse solution (TBS-T) for 3 times, 10 min each time, and then ECL was added for incubation in dark for 5 min, and subsequently, a fluorescence imaging analyzer was used for image development and scanning analysis.

[5] = test system: cycle regulatory protein P21; test: Western Blotting of P21 in U937 cells; type: cell-based; settings: 10 μmol/L, 24 h
Method: as §4, §5, §6

[6] = test system: cycle regulatory protein P21; test: Western Blotting of P21 in K562 cells; type: cell-based, human; settings: leukemia cells K562, 10 μmol/L, 24 h
Method: as §4, §5, §6

[7] = test system: anti-apoptotic protein Bcl-2; test: Western Blotting of Bcl-2 in A875 cells; type: cell-based; settings: human melanoma A875 cells, 10 μmol/L, 24 h
Method: as §4, §5, §6

[8] = test system: human melanoma A875 cells; test: Cell apoptosis, Annexin V-FITC/PI, flow cytometer; type: cell-based; settings: for cell apoptosis: 10 μmol/L, 24 h
Method: Mogroside I E1, Mogroside II A2 and mogrol) for 24 h, cells were collected and washed twice with 200 μl of cold PBS, and then the cells were collected again; 100 μl of binding buffer was added for re-suspending the cells, and after the addition of 2 μl of Annexin V-FITC and well mixing, the resulting mixture was placed in dark at room temperature for 10 min, and then 5 μl of propidium iodide (PI) was added and then well mixed; the mixture was placed in dark at room temperature for 10 min, and detected by flow cytometer, and the results are shown in FIGS. 13-15.

[9] = test system: cycle regulatory protein P21; test: Western Blotting of P21 in A875 cells; type: cell-based; settings: human melanoma A875 cells, 10 μmol/L, 24 h
Method: as §4, §5, §6

leukemia cells K562 [10] = test: Cell apoptosis, Annexin V-FITC/PI, flow cytometer; type: cell-based, human; settings: leukemia cells K562, 10 μmol/L, 24 h
Method: (§7) Lymphoma U937 cells, human melanoma A875 cells and leukemia cells K562 in logarithmic growth phase were selected, and after the respective culture with 0 and 10 μmol/L of the mogrosides and analogs thereof (i.e. Mogroside I E1, Mogroside II A2 and mogrol) for 24 h, cells were collected and washed twice with 200 μl of cold PBS, and then the cells were collected again; 100 μl of binding buffer was added for re-suspending the cells, and after the addition of 2 μl of Annexin V-FITC and well mixing, the resulting mixture was placed in dark at room temperature for 10 min, and then 5 μl of propidium iodide (PI) was added and then well mixed; the mixture was placed in dark at room temperature for 10 min, and detected by flow cytometer, and the results are shown in FIGS. 13-15.

[11] = test system: anti-apoptotic protein Bcl-2; test: Western Blotting of Bcl-2 in U937 cells; type: cell-based; settings: 10 μmol/L, 24 h
Method: as §4, §5, §6

leukemia cells K562 [12] = test: Cell cycle distribution, PI staining, flow cytometer; type: cell-based, human; settings: leukemia cells K562, 10 μmol/L, 24 h
Excerpt: as §1, §2

lymphoma U937 cells [13] = test: Cell morphology, Hoechst 33258 staining, fluorescence microscope; type: cell-based; settings: lymphoma U937 cells, 10, 100 and 250 μmol/L, 24-hour culture
Method: as §3

[14] = test system: human melanoma A875 cells; test: as above; type: cell-based; settings: A875 melanoma cells, 10, 100 and 250 μmol/L, 24-hour culture
Method: as §3

lymphoma U937 cells [15] = test: Cell apoptosis, Annexin V-FITC/PI, flow cytometer; type: cell-based; settings: 10 μmol/L, 24 h
Method: as §7

## C[C@H](CC[C@@H](O)C(C)(C)O)[C@H]1CC[C@@]2(C)[C@H]3CC=C4[C@@H](CC[C@H](O[C@@H]5O[C@H](CO)[C@@H](O)[C@H](O)[C@H]5O)C4(C)C)[C@]3(C)C(O)C[C@]12C (stereo partly drawn) [Mogroside I E1]
[1]
  proportion of cells in G0/G1 phase with the rise of the concentration: gradually increased
  cell cycle distribution (proportion of cells of G0/G1 phase): G0/G1 arrest
[2]
  cell cycle distribution (proportion of cells in the G0/G1 phase): G0/G1 arrest
Leukemia cells K562 [3]
  cell morphology variation (Hoechst 33258): identical to the results of Mogroside II A2
[4]
  expression of anti-apoptotic protein Bcl-2: significantly down-regulated
[5]
  expression of cycle regulatory protein P21: significantly up-regulated
[6]
  expression of cycle regulatory protein P21: significantly up-regulated
[7]
  expression of anti-apoptotic protein Bcl-2: significantly down-regulated
[8]
  cell apoptosis: induce the apoptosis
[9]
  expression of cycle regulatory protein P21: significantly up-regulated
Leukemia cells K562 [10]
  cell apoptosis: induce the apoptosis
[11]
  expression of anti-apoptotic protein Bcl-2: significantly down-regulated
Leukemia cells K562 [12]
  cell cycle distribution (cell cycle arrest): arrested
Lymphoma U937 cells [13]
  cell morphology variation (Hoechst 33258): identical to the results of Mogroside II A2
[14]
  cell morphology variation (Hoechst 33258): identical to the results of Mogroside II A2
Lymphoma U937 cells [15]
  cell apoptosis: induce the apoptosis

## C[C@H](CC[C@@H](O)C(C)(C)O)[C@H]1CC[C@@]2(C)[C@H]3CC=C4[C@@H](CC[C@H](O[C@@H]5O[C@H](CO[C@@H]6O[C@H](CO)[C@@H](O)[C@H](O)[C@H]6O)[C@@H](O)[C@H](O)[C@H]5O)C4(C)C)[C@]3(C)[C@H](O)C[C@]12C [Mogroside II A2]
[1]
  proportion of cells in G0/G1 phase with the rise of the concentration: gradually increased
  cell cycle distribution (proportion of cells of G0/G1 phase): G0/G1 arrest
[2]
  cell cycle distribution (proportion of cells in the G0/G1 phase): G0/G1 arrest
Leukemia cells K562 [3]
  cell morphology variation (Hoechst 33258): identical to the results of the human melanoma A875 cells
[4]
  expression of anti-apoptotic protein Bcl-2: significantly down-regulated
[5]
  expression of cycle regulatory protein P21: significantly up-regulated
[6]
  expression of cycle regulatory protein P21: significantly up-regulated
[7]
  expression of anti-apoptotic protein Bcl-2: significantly down-regulated
[8]
  cell apoptosis: induce the apoptosis
[8]; different concentrations (FIG. 16)
  amount for cell apoptosis with the rise of the concentration: the amount for cell apoptosis increases
[9]
  expression of cycle regulatory protein P21: significantly up-regulated
Leukemia cells K562 [10]
  cell apoptosis: induce the apoptosis
[11]
  expression of anti-apoptotic protein Bcl-2: significantly down-regulated
Leukemia cells K562 [12]
  cell cycle distribution (cell cycle arrest): arrested
Lymphoma U937 cells [13]
  cell morphology variation (Hoechst 33258): identical to the results of the human melanoma A875 cells
[14]
  cell morphology variation (Hoechst 33258): typical variation of cell apoptosis
Lymphoma U937 cells [15]
  cell apoptosis: induce the apoptosis
